Experimental data reported in patent US6852700B1, “Colostrinin, and uses thereof” (Ludwig Hirzfeld Institute of Immunology and Experimental …, priority 1996, dated 2005).
Ends that are not written are not given here.

Legend:
[1] = tested on: lymphocytes present in whole blood; assay: Induction of cytokines in vitro in whole blood cultures; type: cell-based, human
Method: Induction of cytokines by the polypeptide Colostrinin™ in vitro on blood taken from healthy and sick volunteers taking the pharmaceutical in the form stated in Example III, in cyclic treatment, is carried out as follows.
Whole blood, containing 10 units per 1 ml of heparin without preservatives is diluted at 1:10 ratio in RPMI 1640 culture medium. Incubation is conducted in the same culture medium without inducers (negative control), or in the presence of 1-100 μg/ml of the polypeptide Colostrinin™ or in the presence of 2 μg/ml blood of phytohaemagglutinin (PHA) and 2 μg/ml blood of lipopolysaccharide (LPS), at a temperature of 37° C., in an atmosphere of 5% carbon dioxide, for 20 hours. Samples with mixture of PHA and LPS are the positive control, as they can stimulate the maximum quantities of cytokines.

[2] = tested on: lymphocytes isolated from cord blood (CBL); assay: Induction of cytokines in a culture of lymphocytes isolated from cord blood (CBL); type: cell-based, human; details: 20 hours
Method: Cord blood obtained from the Gynaecological-Obstetric Department of the Specialist District Hospital in Wroclaw. Induction of cytokines by Colostrinin™ in vitro in lymphocytes of cord blood taken 4-6 hours after parturition is effected in the following way.
The lymphocytes are isolated using a Ficoll-Paque® gradient containing 5.7 g of the component Ficoll 400 and 9.0 g of the component Diatrizoate Sodium per 100 ml. The lymphocytes isolated are suspended in RPMI-1640 culture medium at density of 2×10^6 lymphocyte cells per 1 ml of culture medium. Colostrinin™ at concentration of 1-20 μg/ml or phytohaemagglutinin at concentration of 10 μg/ml is added to the lymphocyte suspension. The culture is incubated for 20 hours at a temperature of 37° C. Then the level of cytokines in the culture fluids is determined by biological methods.

mice = assay: Toxicological studies on mice; type: in vivo; details: both after oral and parenteral administration
mice of the NZB line = assay: Haemolytic anaemia in mice of the NZB line; type: in vivo; details: intraperitoneal administration
sarcoma 180 = assay: Growth of sarcoma 180 in mice; type: in vivo; details: intraperitoneal administration in mice
[3] = tested on: mice exposed to gamma radiation; assay: Radiation sickness in mice exposed to gamma radiation; type: in vivo
[4] = tested on: patients with Alzheimer's disease; assay: Treatment of volunteer patients with Alzheimer's disease with tablets for sucking; type: in vivo, human
Method: (§1) The method of treatment of disorders of the central nervous system was investigated on a group of volunteer patients in the early and moderate stages of Alzheimer's disease. The dosage units were administered in the form of tablets for sucking, between meals, containing 0.00015 g of Colostrinin™ defined in Examples I and III. Firstly, 1 tablet was used daily for a period of 3 weeks, then therapy was interrupted for 2-4 weeks and treatment was repeated, administering 2 tablets daily for 3 weeks. […] This is manifested by an inability to synthesise IFN and also tumour necrosis factor TNF-α. This phenomenon permits quantitative measurements of the action of active agent.
This was followed by a 3-week pause in treatment (during the pause, the tolerance to the inducer returns to normal). Blood samples for investigating stimulation of IFN-γ by Colostrinin™ and control inducers (PHA-10 μg/ml) were taken every week. The method of performing the tests for induction of cytokines and their quantitative determination were described in previous sections.
as §1, with “early” for “early and moderate”, “sucking” for “sucking,”, “NP” for “Colostrinin™”, “Example II.” for “Examples I and III.”, “3” for “2-4”

human volunteers = details: tablets for sucking, at least 25 μg, at least one daily, about 3 weeks
[5] = donor four breast cancer, dose 10 μg/ml
[6] = donor four breast cancer, dose 100 μg/ml
[7] = donor one. Alzheimer's disease, dose 10 μg/ml
[8] = donor one. Alzheimer's disease, dose 100 μg/ml
[9] = donor six healthy young soldier, dose 1 μg/ml
[10] = donor six healthy young soldier, dose 10 μg/ml
[11] = donor six healthy young soldier, dose 100 μg/ml
[12] = donor three schizophrenia, dose 10 μg/ml
[13] = donor three schizophrenia, dose 100 μg/ml
[14] = donor two healthy young soldier, dose 1 μg/ml
[15] = donor two healthy young soldier, dose 10 μg/ml
[16] = donor two healthy young soldier, dose 100 μg/ml
[17] = healthy volunteers, inducer dose 10 μg/ml, 20 hours
[18] = healthy volunteers, inducer dose 100 μg/ml, 20 hours
[19] = patients with Alzheimer's disease, inducer dose 10 μg/ml
[20] = patients with Alzheimer's disease, inducer dose 100 μg/ml
[21] = early and moderate Alzheimer's disease, 1 tablet daily 3 weeks, pause 2-4 weeks, 2 tablets daily 3 weeks
[22] = early Alzheimer's disease, NP tablets, 1 daily 3 weeks, pause 3 weeks, 2 daily 3 weeks

With Colostrinin ™ the “production of cytokines, dose dependence” value ([1]; concentrations of 1-100 μg/ml, whole blood) was “stimulates the production of cytokines in a dose-dependent fashion”, the “production of cytokines (IFN-γ, TNF-α, IL-6, IL-10, growth factors)” value ([1]; cultures of lymphocytes of human peripheral blood (including cord blood)) was “stimulates the production of cytokines” and the “Titres of IFN determined by Antivirus biotest” value (shortened to “Titres … by Antivirus biotest”) [1, 5] was 50 units/ml. The “Titres of IFN determined by ELISA IFN-γ” value [1, 5] was 307 pg/mL, the “Titres … by Antivirus biotest” value [1, 6] was 70 units/ml and the “Titres of IFN determined by ELISA IFN-γ” value [1, 6] was 523 pg/mL. For the same substance, the “Titres … by Antivirus biotest” value [1, 7] was 20 units/ml, the “Titres of IFN determined by ELISA IFN-γ” value [1, 7] was 427 pg/mL and the “Titres … by Antivirus biotest” value [1, 8] was 40 units/ml. For the same substance, the “Titres of IFN determined by ELISA IFN-γ” value [1, 8] was 400 pg/mL, the “Titres … by Antivirus biotest” value [1, 9] was 100 units/ml and the “Titres of IFN determined by ELISA IFN-γ” value [1, 9] was 2690 pg/mL. For the same substance, the “Titres … by Antivirus biotest” value [1, 10] was 200 units/ml, the “Titres of IFN determined by ELISA IFN-γ” value [1, 10] was 3778 pg/mL and the “Titres … by Antivirus biotest” value [1, 11] was 600 units/ml. For the same substance, the “Titres of IFN determined by ELISA IFN-γ” value [1, 11] was 3941 pg/mL, the “Titres … by Antivirus biotest” value [1, 12] was 6 units/ml and the “Titres of IFN determined by ELISA IFN-γ” value [1, 12] was 29 pg/mL. For the same substance, the “Titres … by Antivirus biotest” value [1, 13] was 6 units/ml, the “Titres of IFN determined by ELISA IFN-γ” value [1, 13] was 29 pg/mL and the “Titres … by Antivirus biotest” value [1, 14] was 100 units/ml. For the same substance, the “Titres of IFN determined by ELISA IFN-γ” value [1, 14] was 1413 pg/mL, the “Titres … by Antivirus biotest” value [1, 15] was 300 units/ml and the “Titres of IFN determined by ELISA IFN-γ” value [1, 15] was 3402 pg/mL. For the same substance, the “Titres … by Antivirus biotest” value [1, 16] was 300 units/ml, the “Titres of IFN determined by ELISA IFN-γ” value [1, 16] was 2920 pg/mL and the “Cytokines IFN” value [1, 17] was 50 ± 59 unit/ml. For the same substance, the “Cytokines TNF” value [1, 17] was 316 ± 371 unit/ml, the “Cytokines IFN” value [1, 18] was 344 ± 254 unit/ml and the “Cytokines TNF” value [1, 18] was 670 ± 560 unit/ml. For the same substance, the “Cytokines IFN” value [1, 19] was 15 ± 9 unit/ml, the “Cytokines TNF” value [1, 19] was 182 ± 158 unit/ml and the “Cytokines IFN” value [1, 20] was 21 ± 14 unit/ml. For the same substance, the “Cytokines TNF” value [1, 20] was 249 ± 187 unit/ml, the “Cytokines IFN” value ([2]; dose 1 μg/ml) was 38 ± 66 unit/ml and the “Cytokines TNF” value ([2]; dose 1 μg/ml) was 16 ± 17 unit/ml. For the same substance, the “Cytokines IFN” value ([2]; dose 10 μg/ml) was 78 ± 80 unit/ml, the “Cytokines TNF” value ([2]; dose 10 μg/ml) was 37 ± 35 unit/ml and the “Cytokines IFN” value ([2]; dose 20 μg/ml) was 89 ± 79 unit/ml. For the same substance, the “Cytokines TNF” value ([2]; dose 20 μg/ml) was 59 ± 41 unit/ml, the LD50 (mice) was “above 1.25 g/kg of body weight” and the “development of haemolytic anaemia” value (mice of the NZB line) was “inhibits the development of haemolytic anaemia”. For the same substance, the “growth of sarcoma 180” value (sarcoma 180) was “inhibit the growth of sarcoma 180”, the “protection against radiation sickness” value [3] was “protects the animals against radiation sickness” and the “clinical effect in patients with Alzheimer's disease” value [4, 21] was “improvement of contact and uplift of mood were observed”. The “reactivity to induction of IFN and TNF-α after treatment” value [4, 21] was “induced a state of hyporeactivity or tolerance”, the “time course of hyporeactivity to induction of IFN-γ (FIG. 1)” value ([4]; patient five, 100 μg tablet every other day for three weeks, then 3-week pause) was “hyporeactivity appears as early as during the first week” and the “reactivity to induction of IFN-γ and TNF-α” value (human volunteers) was “state of hyporeactivity”.

“VESYVPLFP [NP, nonapeptide fragment of Colostrinin obtained by chymotrypsin digestion or chemical synthesis]” was tested, and the “clinical effect in patients with Alzheimer's disease” value [4, 22] was “improvement of contact and uplift of mood were observed” and the “reactivity to induction of IFN and TNF-α after treatment” value [4, 22] was “induced a state of hyporeactivity or tolerance”.

For “phytohaemagglutinin [PHA, reference compound]”, the “Cytokines IFN” value ([2]; PHA dose 10 μg/ml) was 75 ± 66 unit/ml and the “Cytokines TNF” value ([2]; PHA dose 10 μg/ml) was 83 ± 69 unit/ml.
